How the values were obtained:
[1] = tested on: latent HIV provirus in OM10.1 cells; assay: Induction of latent HIV provirus by TNF-α in OM10.1 cells (CD4 retention, p24); type: cell-based, HIV-1
Procedure: In order to determine p24 expression in HIV-infected cells, the cells were first washed twice with Assay Buffer. About 10^6 cells were suspended in 100 μL Assay Buffer, mixed with 2 mL of Ortho PermeaFix Solution (available from Ortho Diagnostics), and incubated for 40 min. at room temperature. After centrifugation at 1200 rpm for 4 min. at 4EC, the cells were resuspended in 2 mL Wash Buffer (500 mL PBS, 25 mL fetal bovine serum, 1.5% bovine serum albumin and 0.0055% EDTA) for 10 min. at room temperature. After centrifugation, the cells were resuspended in 50 ΦL Wash Buffer and mixed with 1:500 dilution of an IgG2a antibody for 20 min. at 4EC, followed by incubation with 5-10 ΦL of anti-p24 antibody (KC57-FITC, available from Coulter) for 30 min. at 4EC. The cells were then washed twice with Wash Buffer and analyzed by flow cytometry.
One strategy selected for GSEs which suppressed productive infection of cells by HIV. The second strategy selected for GSEs which suppressed induction of the latent provirus in OM10.1 cells. When OM10.1 cells were treated with TNF-α and stained with an antibody specific for the cell surface molecule CD4, a rapid loss of CD4 expression was observed (FIG. 1). In contrast, the vast majority of the uninduced OM10.1 cells retained CD4 expression. It is believed that activation of the latent virus in OM10.1 cells by TNF-α leads to the production of viral protein gp120, which binds to cytoplasmic CD4, thereby preventing its translocation to the cell surface. A diminution of CD4^+ OM10.1 cells also correlates with an increased production of viral protein p24 in the cells following TNF-α induction.
OM10.1 cells were cultured in RPMI 1640 glucose-free media prior to and during incubation with NADH dehydrogenase inhibitors and TNF-á induction. The inhibitors were added to the cells followed by TNF-á induction 1-2 hours later. The expression of CD4 by the cells was assessed by anti-CD4 antibody staining and flow cytometry after 24 hour incubation at 37° C.

OM10.1 cells = type: cell-based; settings: human, 24 h, 100 nM
HIV-1SF33 = assay: Productive infection of activated human PBLs with HIV-1SF33, flow cytometry of CD3+ T cells; type: cell-based; settings: for % CD4^+ in population / % p24+ cells among CD4+ T cells: HIV +, day 6; for % CD4^+ in population: CD3+ T cells of human PBLs; for % p24+ cells among CD4+ T cells: human PBLs
Procedure: (§1) Human peripheral blood leukocytes (PBLs) were isolated using Ficoll-Hypaque density gradient separation. Cells were washed twice and resuspended in RPMI+10% FBS+2% human AB serum+penicillin/streptomycin/glutamine+100 Units/mL of IL-2 at a concentration of 0.5×10^6 cells/mL. PBLs were then activated with phytohemagglutinin at 0.5 μg/mL and placed in a humidified incubator at 37° C./5% CO2. After two days of activation, 10^6 cells were infected with HIV-1SF33 at TCID50 of 1000, in the presence of various concentrations of mofarotene: 0 μM, 1 μM, 0.5 μM, 0.1 μM, and 0.05 μM. A separate set of uninfected samples under identical concentrations of mofarotene were also maintained as controls. The samples were analyzed by flow cytometry at day 4 and day 6 post infection. The cells were gated for CD3 expression (for T cells). Then the expression of CD4 and viral p24 and CD4 was examined by bivariate dot plot.
In order to test the ability of a NADH dehydrogenase inhibitor to prevent productive infection of T cells by HIV, human PBLs were isolated and infected with HIVSF33 in the presence of various concentrations of mofarotene.

[2] = tested on: human peripheral blood leukocytes (PBLs); assay: Uninfected human PBL controls with mofarotene alone (CD4, p24, CD3); type: cell-based; settings: for % CD4^+ in population / % p24^− in CD4^− T population: HIV −; for % CD4^+ in population: CD3+ T cells of human PBLs; for % p24^− in CD4^− T population: human PBLs
Procedure: as §1

C/C(=C\c1ccc(OCCN2CCOCC2)cc1)c1ccc2c(c1)C(C)(C)CCC2(C)C [mofarotene, Mofarotene]
cells that retained CD4 expression ([1]; 100 nM of mofarotene, TNF-α-induced OM10.1 cells): 80%
inhibition of induction of latent HIV provirus (retention of CD4 expression) ([1]; TNF-α-induced OM10.1 cells, 24 hour incubation, FIG. 5 / FIG. 6): inhibited HIV-1 induction at even lower concentrations
intracellular p24 levels ([1]; treated cells compared with untreated controls): suppressed intracellular p24 levels
cells that remained viable (OM10.1 cells): greater than 80%
% CD4^+ in population (HIV-1SF33; mofarotene 0.05 μM): 18%
% p24+ cells among CD4+ T cells (HIV-1SF33; mofarotene 0.05 μM): 20.5%
% CD4^+ in population (HIV-1SF33; mofarotene 0.1 μM): 28%
% p24+ cells among CD4+ T cells (HIV-1SF33; mofarotene 0.1 μM): 11.4%
% CD4^+ in population (HIV-1SF33; mofarotene 0.5 μM): 24%
% p24+ cells among CD4+ T cells (HIV-1SF33; mofarotene 0.5 μM): 12.5%
% CD4^+ in population (HIV-1SF33; mofarotene 1.0 μM): 25%
% p24+ cells among CD4+ T cells (HIV-1SF33; mofarotene 1.0 μM): 10%
% p24+ cells among CD4+ T cells (HIV-1SF33; mofarotene 1.0 μM, listed as Mofarotene): 10%
difference between HIV-infected PBLs with or without mofarotene (HIV-1SF33; day 4 post-infection): little detectable difference
depletion of CD4^+ T cells by HIV infection (HIV-1SF33; day 6, 1 μM mofarotene): inhibited the depletion of CD4^+ T cells by HIV infection
level of protection (percentage of p24+ CD4+ T cells and of CD4+ cells in CD3+ T cells) versus concentration (HIV-1SF33; day 6, 1 to 0.05 μM): diminished with decreased concentrations of mofarotene
% CD4^+ in population ([2]; mofarotene 0.05 μM, day 6): 33%
% p24^− in CD4^− T population ([2]; mofarotene 0.05 μM, day 6): 0%
% CD4^+ in population ([2]; mofarotene 0.1 μM, day 6): 34%
% p24^− in CD4^− T population ([2]; mofarotene 0.1 μM, day 6): 0%
% CD4^+ in population ([2]; mofarotene 0.5 μM, day 6): 34%
% p24^− in CD4^− T population ([2]; mofarotene 0.5 μM, day 6): 0%
% CD4^+ in population ([2]; mofarotene 1.0 μM, day 6): 36%
% p24^− in CD4^− T population ([2]; mofarotene 1.0 μM, day 6): 0%
expression level of CD3 on the cell surface ([2]; day 4): nor did it alter the expression level of CD3 on the cell surface
percentage of CD4^+ T cells, mofarotene alone ([2]; day 4): did not significantly alter the percentage of CD4^+ T cells
expression level of CD3 on the cell surface ([2]; day 6): did not alter the expression level of CD3 on the cell surface
increase of the percentage of CD4^+ T cells in uninfected samples by mofarotene alone ([2]; day 6, uninfected samples): up to 4%

Reference: US6613506B1, “Compositions and methods for inhibiting human immunodeficiency virus infection by down-regulating human cellular genes” (Subsidiary No. 3, Inc., priority 2000, dated 2003)
